# Results: patent US7507730B2, “Substituted pyrazolo[1,5-a]pyrimidines as potassium channel activators” (Bristol-Myers Squibb Company, priority 2005, dated 2009)
# Target: Kv1.5 (Homo sapiens, UniProt P22460)
# Test: Kv1.5 inhibition assay (IKur inhibitor assay per cited references)
# Format: cell-based
# Conditions: for inhibition at 0.3 µM / Kv1.5% inhibition: at 0.3 μM; for IC50: read-out: Kv1.5 IC50
# Excerpt: Assays to determine the degree of activity of a compound as an IKur inhibitor are well known in the art and are described in references such as J. Gen. Physiol. Apr.; 101 (4):513-43, and Br. J. Pharmacol. 1995 May; 115(2):267-74.
# Kv1.5, sequence (P22460 whole entry): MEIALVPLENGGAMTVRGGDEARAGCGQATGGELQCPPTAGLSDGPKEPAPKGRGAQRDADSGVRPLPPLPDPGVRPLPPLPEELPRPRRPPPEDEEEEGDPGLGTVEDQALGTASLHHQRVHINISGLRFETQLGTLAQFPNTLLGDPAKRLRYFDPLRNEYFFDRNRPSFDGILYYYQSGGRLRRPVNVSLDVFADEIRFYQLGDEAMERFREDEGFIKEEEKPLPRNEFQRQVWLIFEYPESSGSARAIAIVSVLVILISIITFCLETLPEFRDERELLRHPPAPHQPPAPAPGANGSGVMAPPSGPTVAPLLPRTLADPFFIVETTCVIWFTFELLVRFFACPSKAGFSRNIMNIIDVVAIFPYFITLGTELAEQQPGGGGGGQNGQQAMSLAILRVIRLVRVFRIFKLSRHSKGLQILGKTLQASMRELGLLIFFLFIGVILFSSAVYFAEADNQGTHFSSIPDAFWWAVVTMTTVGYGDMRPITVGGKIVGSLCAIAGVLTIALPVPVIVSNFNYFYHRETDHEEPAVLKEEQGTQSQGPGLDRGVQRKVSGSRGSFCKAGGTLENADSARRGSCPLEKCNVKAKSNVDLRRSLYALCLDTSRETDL
inhibition at 0.3 µM,Kv1.5% inhibition,SMILES,also measured
42.3%,–,"COc1ccc(S(=O)(=O)C2=C(C)Nc3cc(C)nn3C2c2ccc(Cl)cc2)cc1 (single isomer, unassigned) [Example 19 Isomer 2, 7-(4-Chlorophenyl)-6-(4-methoxyphenylsulfonyl)-2,5-dimethyl-4,7-dihydropyrazolo[1,5-a]pyrimidine]",–
–,6.5%,"COc1ccc(S(=O)(=O)C2=C(C)Nc3cc(C)nn3C2c2nc3ccccc3n2C)cc1 (single isomer, unassigned) [Example 23 Isomer 1, 6-(4-Methoxyphenylsulfonyl)-2,5-dimethyl-7-(1-methyl-1H-benzo[d]imidazol-2-yl)-4,7-dihydropyrazolo[1,5-a]pyrimidine]",–
–,16.6%,"COc1ccc(S(=O)(=O)C2=C(C)Nc3cc(C)nn3C2c2nc3ccccc3n2C)cc1 (single isomer, unassigned) [Example 23 Isomer 2, 6-(4-Methoxyphenylsulfonyl)-2,5-dimethyl-7-(1-methyl-1H-benzo[d]imidazol-2-yl)-4,7-dihydropyrazolo[1,5-a]pyrimidine]",–
–,–,"COc1ccc(S(=O)(=O)C2=C(C)Nc3cc(C)nn3C2c2ccc(C)c(F)c2)cc1 (single isomer, unassigned) [Example 24 Isomer 1, 7-(3-Fluoro-4-methylphenyl)-6-(4-methoxyphenylsulfonyl)-2,5-dimethyl-4,7-dihydropyrazolo[1,5-a]pyrimidine]",IC50: 148 nM
–,–,"COc1ccc(S(=O)(=O)C2=C(C)Nc3cc(C)nn3C2c2ccc(C)c(F)c2)cc1 (single isomer, unassigned) [Example 24 Isomer 2, 7-(3-Fluoro-4-methylphenyl)-6-(4-methoxyphenylsulfonyl)-2,5-dimethyl-4,7-dihydropyrazolo[1,5-a]pyrimidine]",IC50: 322 nM
85.6%,–,"COc1ccc(S(=O)(=O)C2=C(C)Nc3cc(C(F)(F)F)nn3C2c2ccc(Cl)cc2)cc1 (single isomer, unassigned) [Example 25 Isomer 1, 7-(4-Chlorophenyl)-6-(4-methoxyphenylsulfonyl)-5-methyl-2-(trifluoromethyl)-4,7-dihydropyrazolo[1,5-a]pyrimidine]",–
–,82.9%,"COc1ccc(S(=O)(=O)C2=C(C)Nc3cc(C(F)(F)F)nn3C2c2ccc(Cl)cc2)cc1 (single isomer, unassigned) [Example 25 Isomer 2, 7-(4-Chlorophenyl)-6-(4-methoxyphenylsulfonyl)-5-methyl-2-(trifluoromethyl)-4,7-dihydropyrazolo[1,5-a]pyrimidine]",–
85.8%,–,"CC1=C(S(=O)(=O)c2ccccc2)C(c2ccc(Cl)cc2)n2nc(C(F)(F)F)cc2N1 (single isomer, unassigned) [Example 26 Isomer 1, 7-(4-Chlorophenyl)-5-methyl-6-(phenylsulfonyl)-2-(trifluoromethyl)-4,7-dihydropyrazolo[1,5-a]pyrimidine]",–
–,85.9%,"CC1=C(S(=O)(=O)c2ccccc2)C(c2ccc(Cl)cc2)n2nc(C(F)(F)F)cc2N1 (single isomer, unassigned) [Example 26 Isomer 2, 7-(4-Chlorophenyl)-5-methyl-6-(phenylsulfonyl)-2-(trifluoromethyl)-4,7-dihydropyrazolo[1,5-a]pyrimidine]",–
47.6%,–,"CC1=C(S(=O)(=O)c2ccc(F)cc2)C(c2ccc(Cl)cc2)n2nc(C(F)(F)F)cc2N1 (single isomer, unassigned) [Example 27 Isomer 1, 7-(4-Chlorophenyl)-6-(4-fluorophenylsulfonyl)-5-methyl-2-(trifluoromethyl)-4,7-dihydropyrazolo[1,5-a]pyrimidine]",–
–,–,"CC1=C(S(=O)(=O)c2ccc(F)cc2)C(c2ccc(Cl)cc2)n2nc(C(F)(F)F)cc2N1 (single isomer, unassigned) [Example 27 Isomer 2, 7-(4-Chlorophenyl)-6-(4-fluorophenylsulfonyl)-5-methyl-2-(trifluoromethyl)-4,7-dihydropyrazolo[1,5-a]pyrimidine]",IC50: 92 nM
77.4%,–,"CC1=C(S(=O)(=O)c2ccc(C)cc2)C(c2ccc(Cl)cc2)n2nc(C(F)(F)F)cc2N1 (single isomer, unassigned) [Example 28 Isomer 1, 7-(4-Chlorophenyl)-5-methyl-6-tosyl-2-(trifluoromethyl)-4,7-dihydropyrazolo[1,5-a]pyrimidine]",–
–,83.4%,"CC1=C(S(=O)(=O)c2ccc(C)cc2)C(c2ccc(Cl)cc2)n2nc(C(F)(F)F)cc2N1 (single isomer, unassigned) [Example 28 Isomer 2, 7-(4-Chlorophenyl)-5-methyl-6-tosyl-2-(trifluoromethyl)-4,7-dihydropyrazolo[1,5-a]pyrimidine]",–
–,–,"CC1=C(S(=O)(=O)C2CCCCC2)C(c2ccc(Cl)cc2)n2nc(C(F)(F)F)cc2N1 (single isomer, unassigned) [Example 29 Isomer 1, 7-(4-Chlorophenyl)-6-(cyclohexylsulfonyl)-5-methyl-2-(trifluoromethyl)-4,7-dihydropyrazolo[1,5-a]pyrimidine]",IC50: 204 nM
87.9%,–,"CC1=C(S(=O)(=O)C2CCCCC2)C(c2ccc(Cl)cc2)n2nc(C(F)(F)F)cc2N1 (single isomer, unassigned) [Example 29 Isomer 2, 7-(4-Chlorophenyl)-6-(cyclohexylsulfonyl)-5-methyl-2-(trifluoromethyl)-4,7-dihydropyrazolo[1,5-a]pyrimidine]",–
–,–,"CCCCS(=O)(=O)C1=C(C)Nc2cc(C(F)(F)F)nn2C1c1ccc(Cl)cc1 (single isomer, unassigned) [Example 30 Isomer 1, 6-(Butylsulfonyl)-7-(4-chlorophenyl)-5-methyl-2-(trifluoromethyl)-4,7-dihydropyrazolo[1,5-a]pyrimidine]",IC50: 210 nM
77%,–,"CCCCS(=O)(=O)C1=C(C)Nc2cc(C(F)(F)F)nn2C1c1ccc(Cl)cc1 (single isomer, unassigned) [Example 30 Isomer 2, 6-(Butylsulfonyl)-7-(4-chlorophenyl)-5-methyl-2-(trifluoromethyl)-4,7-dihydropyrazolo[1,5-a]pyrimidine]",–
82.7%,–,"CC1=C(S(=O)(=O)c2ccc(Cl)cc2)C(c2ccc(Cl)cc2)n2nc(C(F)(F)F)cc2N1 (single isomer, unassigned) [Example 31 Isomer 1, 7-(4-Chlorophenyl)-6-(4-chlorophenylsulfonyl)-5-methyl-2-(trifluoromethyl)-4,7-dihydropyrazolo[1,5-a]pyrimidine]",–
–,81.9%,"CC1=C(S(=O)(=O)c2ccc(Cl)cc2)C(c2ccc(Cl)cc2)n2nc(C(F)(F)F)cc2N1 (single isomer, unassigned) [Example 31 Isomer 2, 7-(4-Chlorophenyl)-6-(4-chlorophenylsulfonyl)-5-methyl-2-(trifluoromethyl)-4,7-dihydropyrazolo[1,5-a]pyrimidine]",–
81.8%,–,"COc1ccc(S(=O)(=O)C2=C(C)Nc3cc(C(F)(F)F)nn3C2c2ccc(C)c(F)c2)cc1 (single isomer, unassigned) [Example 32 Isomer 1, 7-(3-Fluoro-4-methylphenyl)-6-(4-methoxyphenylsulfonyl)-5-methyl-2-(trifluoromethyl)-4,7-dihydropyrazolo[1,5-a]pyrimidine]",–
